Source: the NIST ThermoML archive (doi:10.1016/j.tca.2013.08.031)
Numbers after ± are expanded uncertainties.

Experiment: molar heat capacity at constant volume
Conditions: Fluid (supercritical or subcritical phases), Vacuum adiabatic calorimetry

For `CCC(C)O` (stereo unspecified) [butan-2-ol], the “molar heat capacity at constant volume” value (513.55 K, Mass density=474.07 kg/m3) was 293.52 ± 3 J/K/mol, the “molar heat capacity at constant volume” value (513.74 K, Mass density=95.93 kg/m3) was 641.3 ± 8.3 J/K/mol and the “molar heat capacity at constant volume” value (513.74 K, Mass density=474.07 kg/m3) was 293.52 ± 3 J/K/mol. For the same compound, the “molar heat capacity at constant volume” value (513.92 K, Mass density=95.93 kg/m3) was 638.11 ± 8.2 J/K/mol, the “molar heat capacity at constant volume” value (513.92 K, Mass density=474.07 kg/m3) was 295 ± 3 J/K/mol and the “molar heat capacity at constant volume” value (514.11 K, Mass density=95.93 kg/m3) was 635.74 ± 8.3 J/K/mol. The “molar heat capacity at constant volume” value (514.11 K, Mass density=474.07 kg/m3) was 289.82 ± 3 J/K/mol, the “molar heat capacity at constant volume” value (514.3 K, Mass density=95.93 kg/m3) was 627.59 ± 8.1 J/K/mol and the “molar heat capacity at constant volume” value (514.3 K, Mass density=474.07 kg/m3) was 283.14 ± 3 J/K/mol. The “molar heat capacity at constant volume” value (514.48 K, Mass density=95.93 kg/m3) was 308.72 ± 5.9 J/K/mol, the “molar heat capacity at constant volume” value (514.48 K, Mass density=474.07 kg/m3) was 295.75 ± 3 J/K/mol and the “molar heat capacity at constant volume” value (514.67 K, Mass density=95.93 kg/m3) was 252.53 ± 5.5 J/K/mol. For the same compound, the “molar heat capacity at constant volume” value (514.67 K, Mass density=474.07 kg/m3) was 285.37 ± 3 J/K/mol, the “molar heat capacity at constant volume” value (514.86 K, Mass density=95.93 kg/m3) was 246.31 ± 5.6 J/K/mol and the “molar heat capacity at constant volume” value (514.86 K, Mass density=474.07 kg/m3) was 291.3 ± 3 J/K/mol. For the same compound, the “molar heat capacity at constant volume” value (515.04 K, Mass density=95.93 kg/m3) was 265.58 ± 6.4 J/K/mol, the “molar heat capacity at constant volume” value (515.04 K, Mass density=474.07 kg/m3) was 286.85 ± 3 J/K/mol and the “molar heat capacity at constant volume” value (515.23 K, Mass density=95.93 kg/m3) was 271.43 ± 3 J/K/mol. The “molar heat capacity at constant volume” value (515.23 K, Mass density=474.07 kg/m3) was 240.9 ± 2.2 J/K/mol, the “molar heat capacity at constant volume” value (515.42 K, Mass density=95.93 kg/m3) was 276.47 ± 2.9 J/K/mol and the “molar heat capacity at constant volume” value (515.42 K, Mass density=474.07 kg/m3) was 230.52 ± 2.2 J/K/mol. The “molar heat capacity at constant volume” value (515.6 K, Mass density=474.07 kg/m3) was 230.52 ± 2.2 J/K/mol, the “molar heat capacity at constant volume” value (515.79 K, Mass density=95.93 kg/m3) was 198.72 ± 2.1 J/K/mol and the “molar heat capacity at constant volume” value (515.79 K, Mass density=474.07 kg/m3) was 229.04 ± 2.2 J/K/mol. For the same compound, the “molar heat capacity at constant volume” value (515.98 K, Mass density=95.93 kg/m3) was 206.28 ± 2.1 J/K/mol, the “molar heat capacity at constant volume” value (515.98 K, Mass density=474.07 kg/m3) was 232.74 ± 2.2 J/K/mol and the “molar heat capacity at constant volume” value (516.16 K, Mass density=95.93 kg/m3) was 200.65 ± 2.1 J/K/mol. For the same compound, the “molar heat capacity at constant volume” value (516.35 K, Mass density=95.93 kg/m3) was 215.69 ± 2.4 J/K/mol, the “molar heat capacity at constant volume” value (516.53 K, Mass density=95.93 kg/m3) was 229.41 ± 2.4 J/K/mol and the “molar heat capacity at constant volume” value (516.53 K, Mass density=403.55 kg/m3) was 311.31 ± 3 J/K/mol. The “molar heat capacity at constant volume” value (516.53 K, Mass density=474.07 kg/m3) was 220.14 ± 2.2 J/K/mol, the “molar heat capacity at constant volume” value (516.72 K, Mass density=95.93 kg/m3) was 228.07 ± 2.3 J/K/mol and the “molar heat capacity at constant volume” value (516.72 K, Mass density=403.55 kg/m3) was 309.83 ± 3 J/K/mol. For the same compound, the “molar heat capacity at constant volume” value (516.72 K, Mass density=474.07 kg/m3) was 223.11 ± 2.2 J/K/mol, the “molar heat capacity at constant volume” value (516.91 K, Mass density=95.93 kg/m3) was 243.71 ± 2.5 J/K/mol and the “molar heat capacity at constant volume” value (516.91 K, Mass density=403.55 kg/m3) was 312.79 ± 3 J/K/mol. For the same compound, the “molar heat capacity at constant volume” value (516.91 K, Mass density=474.07 kg/m3) was 221.62 ± 2.2 J/K/mol, the “molar heat capacity at constant volume” value (516.91 K, Mass density=538.17 kg/m3) was 212.88 ± 2.1 J/K/mol and the “molar heat capacity at constant volume” value (517.09 K, Mass density=95.93 kg/m3) was 203.61 ± 2.1 J/K/mol. The “molar heat capacity at constant volume” value (517.09 K, Mass density=403.55 kg/m3) was 309.09 ± 3 J/K/mol, the “molar heat capacity at constant volume” value (517.09 K, Mass density=474.07 kg/m3) was 222.36 ± 2.2 J/K/mol and the “molar heat capacity at constant volume” value (517.09 K, Mass density=538.17 kg/m3) was 213.84 ± 2.1 J/K/mol. The “molar heat capacity at constant volume” value (517.28 K, Mass density=95.93 kg/m3) was 224.96 ± 2.3 J/K/mol, the “molar heat capacity at constant volume” value (517.28 K, Mass density=403.55 kg/m3) was 310.57 ± 3 J/K/mol and the “molar heat capacity at constant volume” value (517.28 K, Mass density=538.17 kg/m3) was 214.06 ± 2.1 J/K/mol. For the same compound, the “molar heat capacity at constant volume” value (517.47 K, Mass density=403.55 kg/m3) was 313.53 ± 3 J/K/mol, the “molar heat capacity at constant volume” value (517.65 K, Mass density=403.55 kg/m3) was 309.09 ± 3 J/K/mol and the “molar heat capacity at constant volume” value (520.44 K, Mass density=117 kg/m3) was 740.77 ± 7.4 J/K/mol. The “molar heat capacity at constant volume” value (520.63 K, Mass density=117 kg/m3) was 732.54 ± 7.3 J/K/mol, the “molar heat capacity at constant volume” value (520.81 K, Mass density=117 kg/m3) was 737.95 ± 7.4 J/K/mol and the “molar heat capacity at constant volume” value (521 K, Mass density=117 kg/m3) was 726.1 ± 7.3 J/K/mol. For the same compound, the “molar heat capacity at constant volume” value (521.18 K, Mass density=117 kg/m3) was 734.77 ± 7.4 J/K/mol, the “molar heat capacity at constant volume” value (521.37 K, Mass density=117 kg/m3) was 723.58 ± 7.5 J/K/mol and the “molar heat capacity at constant volume” value (521.55 K, Mass density=117 kg/m3) was 728.69 ± 9.4 J/K/mol. The “molar heat capacity at constant volume” value (521.74 K, Mass density=117 kg/m3) was 715.2 ± 9.9 J/K/mol, the “molar heat capacity at constant volume” value (521.74 K, Mass density=142.27 kg/m3) was 509.66 ± 5.2 J/K/mol and the “molar heat capacity at constant volume” value (521.92 K, Mass density=117 kg/m3) was 709.42 ± 9.7 J/K/mol. The “molar heat capacity at constant volume” value (521.92 K, Mass density=142.27 kg/m3) was 517.74 ± 5.2 J/K/mol, the “molar heat capacity at constant volume” value (522.11 K, Mass density=117 kg/m3) was 639 ± 9.1 J/K/mol and the “molar heat capacity at constant volume” value (522.11 K, Mass density=142.27 kg/m3) was 522.71 ± 5.3 J/K/mol. The “molar heat capacity at constant volume” value (522.13 K, Mass density=117 kg/m3) was 606.09 ± 8.8 J/K/mol, the “molar heat capacity at constant volume” value (522.15 K, Mass density=117 kg/m3) was 603.42 ± 8.4 J/K/mol and the “molar heat capacity at constant volume” value (522.16 K, Mass density=117 kg/m3) was 599.35 ± 8.4 J/K/mol. The “molar heat capacity at constant volume” value (522.18 K, Mass density=117 kg/m3) was 590.9 ± 8.3 J/K/mol, the “molar heat capacity at constant volume” value (522.2 K, Mass density=117 kg/m3) was 590.9 ± 8.3 J/K/mol and the “molar heat capacity at constant volume” value (522.22 K, Mass density=117 kg/m3) was 505.14 ± 7.7 J/K/mol. For the same compound, the “molar heat capacity at constant volume” value (522.24 K, Mass density=117 kg/m3) was 408.41 ± 7.1 J/K/mol, the “molar heat capacity at constant volume” value (522.26 K, Mass density=117 kg/m3) was 318.13 ± 6.7 J/K/mol and the “molar heat capacity at constant volume” value (522.28 K, Mass density=117 kg/m3) was 304.49 ± 7.2 J/K/mol. The “molar heat capacity at constant volume” value (522.3 K, Mass density=117 kg/m3) was 309.61 ± 7.3 J/K/mol, the “molar heat capacity at constant volume” value (522.3 K, Mass density=142.27 kg/m3) was 521.45 ± 5.3 J/K/mol and the “molar heat capacity at constant volume” value (522.31 K, Mass density=117 kg/m3) was 308.86 ± 7.3 J/K/mol. For the same compound, the “molar heat capacity at constant volume” value (522.33 K, Mass density=117 kg/m3) was 298.12 ± 6.7 J/K/mol, the “molar heat capacity at constant volume” value (522.35 K, Mass density=117 kg/m3) was 289.44 ± 6.7 J/K/mol and the “molar heat capacity at constant volume” value (522.37 K, Mass density=117 kg/m3) was 280.77 ± 6.7 J/K/mol. For the same compound, the “molar heat capacity at constant volume” value (522.39 K, Mass density=117 kg/m3) was 260.54 ± 6.6 J/K/mol, the “molar heat capacity at constant volume” value (522.4 K, Mass density=117 kg/m3) was 247.05 ± 6.6 J/K/mol and the “molar heat capacity at constant volume” value (522.42 K, Mass density=117 kg/m3) was 241.56 ± 6.6 J/K/mol. The “molar heat capacity at constant volume” value (522.44 K, Mass density=117 kg/m3) was 241.56 ± 6.6 J/K/mol, the “molar heat capacity at constant volume” value (522.46 K, Mass density=117 kg/m3) was 222.29 ± 7 J/K/mol and the “molar heat capacity at constant volume” value (522.48 K, Mass density=117 kg/m3) was 221.62 ± 7 J/K/mol. The “molar heat capacity at constant volume” value (522.48 K, Mass density=142.27 kg/m3) was 530.71 ± 5.3 J/K/mol, the “molar heat capacity at constant volume” value (522.67 K, Mass density=117 kg/m3) was 241.78 ± 7.1 J/K/mol and the “molar heat capacity at constant volume” value (522.67 K, Mass density=142.27 kg/m3) was 535.45 ± 5.4 J/K/mol. The “molar heat capacity at constant volume” value (522.85 K, Mass density=117 kg/m3) was 245.27 ± 7.2 J/K/mol, the “molar heat capacity at constant volume” value (522.85 K, Mass density=142.27 kg/m3) was 540.12 ± 5.4 J/K/mol and the “molar heat capacity at constant volume” value (523.04 K, Mass density=117 kg/m3) was 242.75 ± 4.2 J/K/mol. For the same compound, the “molar heat capacity at constant volume” value (523.04 K, Mass density=142.27 kg/m3) was 544.87 ± 5.5 J/K/mol, the “molar heat capacity at constant volume” value (523.22 K, Mass density=117 kg/m3) was 224.14 ± 2.3 J/K/mol and the “molar heat capacity at constant volume” value (523.22 K, Mass density=142.27 kg/m3) was 528.41 ± 5.3 J/K/mol. For the same compound, the “molar heat capacity at constant volume” value (523.41 K, Mass density=117 kg/m3) was 213.62 ± 2.3 J/K/mol, the “molar heat capacity at constant volume” value (523.41 K, Mass density=142.27 kg/m3) was 530.64 ± 5.3 J/K/mol and the “molar heat capacity at constant volume” value (523.59 K, Mass density=142.27 kg/m3) was 531.67 ± 5.3 J/K/mol. The “molar heat capacity at constant volume” value (523.78 K, Mass density=142.27 kg/m3) was 532.34 ± 5.3 J/K/mol, the “molar heat capacity at constant volume” value (524.33 K, Mass density=142.27 kg/m3) was 531.23 ± 5.3 J/K/mol and the “molar heat capacity at constant volume” value (524.52 K, Mass density=142.27 kg/m3) was 529.97 ± 5.3 J/K/mol. For the same compound, the “molar heat capacity at constant volume” value (524.7 K, Mass density=142.27 kg/m3) was 534.05 ± 5.3 J/K/mol, the “molar heat capacity at constant volume” value (524.89 K, Mass density=142.27 kg/m3) was 531.45 ± 5.3 J/K/mol and the “molar heat capacity at constant volume” value (525.07 K, Mass density=142.27 kg/m3) was 529.6 ± 5.3 J/K/mol. For the same compound, the “molar heat capacity at constant volume” value (525.26 K, Mass density=142.27 kg/m3) was 530.41 ± 5.3 J/K/mol, the “molar heat capacity at constant volume” value (525.44 K, Mass density=142.27 kg/m3) was 530.93 ± 5.3 J/K/mol and the “molar heat capacity at constant volume” value (525.63 K, Mass density=142.27 kg/m3) was 531.82 ± 5.3 J/K/mol. The “molar heat capacity at constant volume” value (525.81 K, Mass density=142.27 kg/m3) was 537.01 ± 5.4 J/K/mol, the “molar heat capacity at constant volume” value (525.99 K, Mass density=142.27 kg/m3) was 538.94 ± 5.8 J/K/mol and the “molar heat capacity at constant volume” value (527.1 K, Mass density=142.27 kg/m3) was 532.93 ± 5.7 J/K/mol. For the same compound, the “molar heat capacity at constant volume” value (527.29 K, Mass density=142.27 kg/m3) was 536.64 ± 5.6 J/K/mol.
